Laboratory results from ChEMBL document CHEMBL1201862, “PubChem BioAssay data set” (2004).
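Five concentrations, 48 hours, 96-well plates. Abbreviation: GI50, concentration required for 50% inhibition of growth.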 The source made the active and inactive calls. Rule as the data show it: active = GI50 up to about 1.1 µM and inactive = higher. *1 amine or outer side, *2 acyl side, *3 side chain or, on linkers, in order; H or OH if unused. Where a SMILES comes first, the peptide text is derived from it. The star is where a group is joined. γGlu = O=C(O)[CH](CCC(=O)[*:2])N[*:1]; NHOH = ON*

How the values were obtained:
Assay in all cases: NCI anticancer screen, dose series, 48 h
BT-549 = system: BT-549
COLO 205 = system: COLO 205
HCC 2998 = system: HCC 2998
HCT-116 = system: HCT-116
HL-60 = system: HL-60
K562 = system: K562
MDA-N = system: MDA-N
NCI-H23 = system: NCI-H23
NCI/ADR-RES = system: NCI/ADR-RES
OVCAR-4 = system: OVCAR-4
OVCAR-5 = system: OVCAR-5
OVCAR-8 = system: OVCAR-8
RXF 393 = system: RXF 393
SF-268 = system: SF-268
SF-295 = system: SF-295
SK-MEL-28 = system: SK-MEL-28
SK-MEL-2 = system: SK-MEL-2
SK-OV-3 = system: SK-OV-3
SNB-19 = system: SNB-19
SW-620 = system: SW-620

Q: What does the source list for `CN(C)/C=N/S(=O)(=O)c1nn2c(C=O)c(-c3cc4ccccc4oc3=O)nc2s1`?
A: GI50 (BT-549): 8.65 µM (inactive); GI50 (COLO 205): 1.91 µM (inactive); GI50 (HCC 2998): 19.5 µM (inactive); GI50 (HCT-116): 1.79 µM (inactive); GI50 (HL-60): 1.61 µM (inactive); GI50 (K562): 1.58 µM (inactive); GI50 (MDA-N): 4.46 µM (inactive); GI50 (NCI-H23): 9.68 µM (inactive); GI50 (NCI/ADR-RES): 16.4 µM (inactive); GI50 (OVCAR-4): 8.38 µM (inactive); GI50 (OVCAR-5): 14.6 µM (inactive); GI50 (OVCAR-8): 3.72 µM (inactive); GI50 (RXF 393): 2.58 µM (inactive); GI50 (SF-268): 11.1 µM (inactive); GI50 (SF-295): > 44.1 µM (inactive); GI50 (SK-MEL-28): 2.38 µM (inactive); GI50 (SK-MEL-2): 11.9 µM (inactive); GI50 (SK-OV-3): 39.8 µM (inactive); GI50 (SNB-19): 39.4 µM (inactive); GI50 (SW-620): 2.18 µM (inactive)

Q: Which results are given for `CCCCCCCCCCCC(=O)N(CCCCCCCCC)CC(O)C(O)C(OC1OC(CO)C(O)C(O)C1O)C(O)CO` (stereo not given)?
A: GI50 (BT-549): 19.4 µM (inactive); GI50 (COLO 205): 20.7 µM (inactive); GI50 (HCC 2998): 16.9 µM (inactive); GI50 (HCT-116): 17.7 µM (inactive); GI50 (HL-60): 25.6 µM (inactive); GI50 (K562): 26.9 µM (inactive); GI50 (MDA-N): 20.4 µM (inactive); GI50 (NCI-H23): 17.6 µM (inactive); GI50 (NCI/ADR-RES): 20.1 µM (inactive); GI50 (OVCAR-4): 21 µM (inactive); GI50 (OVCAR-5): 22.7 µM (inactive); GI50 (OVCAR-8): 20.6 µM (inactive); GI50 (RXF 393): 20.7 µM (inactive); GI50 (SF-268): 19.4 µM (inactive); GI50 (SF-295): 18.4 µM (inactive); GI50 (SK-MEL-28): 19.2 µM (inactive); GI50 (SK-MEL-2): 19.7 µM (inactive); GI50 (SK-OV-3): > 10 µM (inactive); GI50 (SNB-19): 20.6 µM (inactive); GI50 (SW-620): 18.8 µM (inactive)

Q: For `Cc1csc(-c2cn(C)c3c2C(=O)C(=N)C=C3O)n1`, which GI50 (BT-549) is on record?
A: 44.9 µM (inactive)

Q: What about the GI50 (COLO 205) of the same compound?
A: 4.53 µM (inactive)

Q: What about the GI50 (HCC 2998) of the same compound?
A: 5 µM (inactive)

Q: What about the GI50 (HCT-116) of the same compound?
A: 8.3 µM (inactive)

Q: And the GI50 (HL-60)?
A: 1.58 µM (inactive)

Q: What about the GI50 (K562) of the same compound?
A: 6.28 µM (inactive)

Q: What about the GI50 (MDA-N) of the same compound?
A: 14.1 µM (inactive)

Q: And the GI50 (NCI-H23)?
A: 2.79 µM (inactive)

Q: And the GI50 (NCI/ADR-RES)?
A: 9.98 µM (inactive)

Q: What about the GI50 (OVCAR-4) of the same compound?
A: > 100 µM (inactive)

Q: And the GI50 (OVCAR-5)?
A: 42.4 µM (inactive)

Q: What about the GI50 (OVCAR-8) of the same compound?
A: 6.34 µM (inactive)

Q: And the GI50 (RXF 393)?
A: 54.1 µM (inactive)

Q: What about the GI50 (SF-268) of the same compound?
A: 15.8 µM (inactive)

Q: What about the GI50 (SF-295) of the same compound?
A: 2.37 µM (inactive)

Q: What about the GI50 (SK-MEL-28) of the same compound?
A: 20.3 µM (inactive)

Q: What about the GI50 (SK-MEL-2) of the same compound?
A: 19.8 µM (inactive)

Q: What about the GI50 (SK-OV-3) of the same compound?
A: 21.2 µM (inactive)

Q: And the GI50 (SNB-19)?
A: 7.38 µM (inactive)

Q: And the GI50 (SW-620)?
A: 9.73 µM (inactive)

Q: `Cc1c2cnccc2c(C)c2c1[nH]c1ccc(O)cc12` was tested. Which GI50 (BT-549) did it give?
A: 6.01 µM (inactive)

Q: And the GI50 (COLO 205)?
A: 2.68 µM (inactive)

Q: What about the GI50 (HCC 2998) of the same compound?
A: 1.57 µM (inactive)

Q: What about the GI50 (HCT-116) of the same compound?
A: 0.796 µM (active)

Q: And the GI50 (HL-60)?
A: 1.05 µM (active)

Q: And the GI50 (K562)?
A: 3.17 µM (inactive)

Q: And the GI50 (MDA-N)?
A: 2.79 µM (inactive)

Q: What about the GI50 (NCI-H23) of the same compound?
A: 1.57 µM (inactive)

Q: And the GI50 (NCI/ADR-RES)?
A: 0.693 µM (active)

Q: What about the GI50 (OVCAR-4) of the same compound?
A: 2.33 µM (inactive)

Q: And the GI50 (OVCAR-5)?
A: 2.4 µM (inactive)

Q: And the GI50 (OVCAR-8)?
A: 0.607 µM (active)

Q: What about the GI50 (RXF 393) of the same compound?
A: 1.53 µM (inactive)

Q: And the GI50 (SF-268)?
A: 1.01 µM (active)

Q: What about the GI50 (SF-295) of the same compound?
A: 1.06 µM (active)

Q: And the GI50 (SK-MEL-28)?
A: 3.01 µM (inactive)

Q: And the GI50 (SK-MEL-2)?
A: 6.25 µM (inactive)

Q: And the GI50 (SK-OV-3)?
A: 6.58 µM (inactive)

Q: And the GI50 (SNB-19)?
A: 3.21 µM (inactive)

Q: What about the GI50 (SW-620) of the same compound?
A: 0.989 µM (active)

Q: What does the source list for `CCOP1(=O)CC(C)=C(Cl)C(OC)C1` (stereo not given)?
A: GI50 (BT-549): > 100 µM (inactive); GI50 (COLO 205): > 100 µM (inactive); GI50 (HCC 2998): > 100 µM (inactive); GI50 (HCT-116): > 100 µM (inactive); GI50 (HL-60): 57.1 µM (inactive); GI50 (K562): 30.5 µM (inactive); GI50 (MDA-N): > 100 µM (inactive); GI50 (NCI-H23): > 100 µM (inactive); GI50 (NCI/ADR-RES): > 100 µM (inactive); GI50 (OVCAR-4): > 100 µM (inactive); GI50 (OVCAR-5): > 100 µM (inactive); GI50 (OVCAR-8): > 100 µM (inactive); GI50 (RXF 393): > 100 µM (inactive); GI50 (SF-268): > 100 µM (inactive); GI50 (SF-295): > 100 µM (inactive); GI50 (SK-MEL-28): > 100 µM (inactive); GI50 (SK-MEL-2): > 100 µM (inactive); GI50 (SK-OV-3): > 100 µM (inactive); GI50 (SNB-19): > 100 µM (inactive); GI50 (SW-620): > 100 µM (inactive)

Q: Which GI50 (BT-549) does the source give for `NC(CCC(=O)NC(CCC(=O)NO)C(=O)NCC(=O)O)C(=O)O` (stereo not given) (γGlu-Glu(NHOH)-Gly-OH; configuration not given here) here?
A: > 100 µM (inactive)

Q: What about the GI50 (COLO 205) of the same compound?
A: > 100 µM (inactive)

Q: And the GI50 (HCC 2998)?
A: > 100 µM (inactive)

Q: What about the GI50 (HCT-116) of the same compound?
A: > 100 µM (inactive)

Q: What about the GI50 (HL-60) of the same compound?
A: > 100 µM (inactive)

Q: And the GI50 (K562)?
A: > 100 µM (inactive)

Q: What about the GI50 (MDA-N) of the same compound?
A: > 100 µM (inactive)

Q: What about the GI50 (NCI-H23) of the same compound?
A: > 100 µM (inactive)

Q: What about the GI50 (NCI/ADR-RES) of the same compound?
A: > 100 µM (inactive)

Q: What about the GI50 (OVCAR-4) of the same compound?
A: > 100 µM (inactive)

Q: And the GI50 (OVCAR-5)?
A: > 100 µM (inactive)

Q: And the GI50 (OVCAR-8)?
A: > 100 µM (inactive)

Q: What about the GI50 (RXF 393) of the same compound?
A: > 100 µM (inactive)

Q: What about the GI50 (SF-268) of the same compound?
A: > 100 µM (inactive)

Q: What about the GI50 (SF-295) of the same compound?
A: > 100 µM (inactive)

Q: What about the GI50 (SK-MEL-28) of the same compound?
A: > 100 µM (inactive)

Q: What about the GI50 (SK-MEL-2) of the same compound?
A: > 100 µM (inactive)

Q: What about the GI50 (SK-OV-3) of the same compound?
A: > 100 µM (inactive)

Q: What about the GI50 (SNB-19) of the same compound?
A: > 100 µM (inactive)

Q: And the GI50 (SW-620)?
A: > 100 µM (inactive)

Q: With `COCN1C(=O)[C@@H]2CCCN2C(=O)c2ccc(N)cc21` as the compound, how does the GI50 (BT-549) read?
A: > 100 µM (inactive)

Q: And the GI50 (COLO 205)?
A: > 100 µM (inactive)

Q: What about the GI50 (HCC 2998) of the same compound?
A: > 100 µM (inactive)

Q: What about the GI50 (HCT-116) of the same compound?
A: > 100 µM (inactive)

Q: What about the GI50 (HL-60) of the same compound?
A: > 100 µM (inactive)

Q: What about the GI50 (K562) of the same compound?
A: > 100 µM (inactive)

Q: What about the GI50 (MDA-N) of the same compound?
A: > 100 µM (inactive)

Q: And the GI50 (NCI-H23)?
A: > 100 µM (inactive)

Q: What about the GI50 (NCI/ADR-RES) of the same compound?
A: > 100 µM (inactive)

Q: And the GI50 (OVCAR-4)?
A: > 100 µM (inactive)

Q: And the GI50 (OVCAR-5)?
A: > 100 µM (inactive)

Q: And the GI50 (OVCAR-8)?
A: > 100 µM (inactive)

Q: And the GI50 (RXF 393)?
A: > 100 µM (inactive)

Q: And the GI50 (SF-268)?
A: > 100 µM (inactive)

Q: And the GI50 (SF-295)?
A: > 100 µM (inactive)

Q: And the GI50 (SK-MEL-28)?
A: > 100 µM (inactive)

Q: What about the GI50 (SK-MEL-2) of the same compound?
A: > 100 µM (inactive)

Q: What about the GI50 (SK-OV-3) of the same compound?
A: > 100 µM (inactive)

Q: What about the GI50 (SNB-19) of the same compound?
A: > 100 µM (inactive)

Q: And the GI50 (SW-620)?
A: > 100 µM (inactive)
